# From patent US6420330B1, “Use of quaternary carboxylic acid alkanolamine ester salts as microbicide agents” (Cognis Deutschland GmbH, priority 1997, dated 2002)
# Key:
# Assay in all cases: DGHM suspension test, microbicidal activity
# Format in all cases: cell-based
# [1] = tested on: Candida albicans ATCC 10231
# Procedure: (§1) The microbicidal activity of the quanterary carboxylic acid alkanolamine ester salts used in accordance with the invention was tested against the following selected test germs:
# (§2) The effectiveness of the compound to be tested was determined by the suspension test in accordance with the guidelines of the Deutsche Gesellschaft for Hygiene and Mikrobiologie (DGHM). Test solutions containing quatemary carboxylic acid alkanolamine ester salts in the quantities shown in the Tables of 50, 100, 200, 400 and 800 mg/l were prepared using water with a hardness of 17° dH and optionally isopropanol.
# (§3) At room temperatures, quantities of 0.1 ml test germ suspension were pipetted into test tubes containing 10 ml of the test solutions described above and mixed. After various contact times of 5, 15, 30 and 60 minutes, 1 ml of material was taken from the test tubes by pipette and transferred to 9 ml inactivator solution (inactivators: 3.0% Tween, 0.3% lecithin, 0.1% histidine). After in activation for at least 5 and at most 30 minutes, the living germ count was determined by plating out onto casein peptone-soybean flour peptone (CaSo)-agar plates. Using a spiral plater, the inactivating mixture was directly plated out onto CaSo-agar. The samples were incubated for 24 to 72 hours at 37° C. and macroscopically evaluated for growth. The destruction time or the residual germ count was determined in this way. The germ count of an unchallenged water control is related to the germ count of the inactivated test solution taking the dilution into account. The higher the value, the better the microbicidal effect. The symbol < means that the logarithmic reductuon factor is below the indicated value or, in the case of the symbol >, above the indicated value. The abbreviation CU stands for “concentration used”.
# [2] = tested on: Pseudomonas aeruginosa ATCC 15442
# Procedure: as §1, §2, §3
# [3] = tested on: Staphylococcus aureus ATCC 6538
# Procedure: as §1, §2, §3
# [4] = CU 50 mg/l, contact time 5 mins.
# [5] = CU 50 mg/l, contact time 15 mins.
# [6] = CU 50 mg/l, contact time 30 mins.
# [7] = CU 50 mg/l, contact time 60 mins.
# [8] = CU 100 mg/l, contact time 5 mins.
# [9] = CU 100 mg/l, contact time 15 mins.
# [10] = CU 100 mg/l, contact time 30 mins.
# [11] = CU 100 mg/l, contact time 60 mins.
# [12] = CU 200 mg/l, contact time 5 mins.
# [13] = CU 200 mg/l, contact time 15 mins.
# [14] = CU 200 mg/l, contact time 30 mins.
# [15] = CU 200 mg/l, contact time 60 mins.
# [16] = CU 400 mg/l, contact time 5 mins.
# [17] = CU 400 mg/l, contact time 15 mins.
# [18] = CU 400 mg/l, contact time 30 mins.
# [19] = CU 400 mg/l, contact time 60 mins.
# [20] = CU 800 mg/l, contact time 5 mins.
# [21] = CU 800 mg/l, contact time 15 mins.
# [22] = CU 800 mg/l, contact time 30 mins.
# [23] = CU 800 mg/l, contact time 60 mins.
molecule,measurement,setting,value
"CCCCCCCCCC(=O)OCC[N+](C)(C)CCOC(=O)CCCCCCCCC.COS(=O)(=O)[O-] [Example 10, dimethyl diethanolammonium dicapric acid ester methosulfate]",logarithmic reduction factor,[1]; [4],2.87
same,logarithmic reduction factor,[1]; [5],>4.84
same,logarithmic reduction factor,[1]; [6],>4.89
same,logarithmic reduction factor,[1]; [7],>4.80
same,logarithmic reduction factor,[1]; [8],4.27
same,logarithmic reduction factor,[1]; [9],>4.84
same,logarithmic reduction factor,[1]; [10],>4.89
same,logarithmic reduction factor,[1]; [11],>4.80
same,logarithmic reduction factor,[2]; [8],3.11
same,logarithmic reduction factor,[2]; [9],3.48
same,logarithmic reduction factor,[2]; [10],3.95
same,logarithmic reduction factor,[2]; [11],4.84
same,logarithmic reduction factor,[2]; [12],3.54
same,logarithmic reduction factor,[2]; [13],4.51
same,logarithmic reduction factor,[2]; [14],5.50
same,logarithmic reduction factor,[2]; [15],5.44
same,logarithmic reduction factor,[2]; [16],4.31
same,logarithmic reduction factor,[2]; [17],5.04
same,logarithmic reduction factor,[2]; [18],5.64
same,logarithmic reduction factor,[2]; [19],>5.79
same,logarithmic reduction factor,[3]; [8],>5.56
same,logarithmic reduction factor,[3]; [9],>5.55
same,logarithmic reduction factor,[3]; [10],>5.72
same,logarithmic reduction factor,[3]; [11],>5.69
same,logarithmic reduction factor,[3]; [12],>5.56
same,logarithmic reduction factor,[3]; [13],>5.55
same,logarithmic reduction factor,[3]; [14],>5.72
same,logarithmic reduction factor,[3]; [15],>5.69
same,logarithmic reduction factor,[3]; [16],>5.56
same,logarithmic reduction factor,[3]; [17],>5.55
same,logarithmic reduction factor,[3]; [18],>5.72
same,logarithmic reduction factor,[3]; [19],>5.69
trimethyl ethanolammonium coconut fatty acid ester methosulfate [Example 4],logarithmic reduction factor,[1]; [4],<0.80
same,logarithmic reduction factor,[1]; [5],<0.79
same,logarithmic reduction factor,[1]; [6],0.91
same,logarithmic reduction factor,[1]; [7],1.40
same,logarithmic reduction factor,[1]; [8],1.19
same,logarithmic reduction factor,[1]; [9],3.01
same,logarithmic reduction factor,[1]; [10],>4.80
same,logarithmic reduction factor,[1]; [11],>5.05
same,logarithmic reduction factor,[1]; [12],3.43
same,logarithmic reduction factor,[1]; [13],>4.79
same,logarithmic reduction factor,[1]; [14],>4.80
same,logarithmic reduction factor,[1]; [15],>5.05
same,logarithmic reduction factor,[1]; [16],>4.80
same,logarithmic reduction factor,[1]; [17],>4.79
same,logarithmic reduction factor,[1]; [18],>4.80
same,logarithmic reduction factor,[1]; [19],>5.05
same,logarithmic reduction factor,[1]; [20],>4.80
same,logarithmic reduction factor,[1]; [21],>4.79
same,logarithmic reduction factor,[1]; [22],>4.80
same,logarithmic reduction factor,[1]; [23],>5.05
same,logarithmic reduction factor,[2]; [4],<1.51
same,logarithmic reduction factor,[2]; [5],<1.66
same,logarithmic reduction factor,[2]; [6],<1.46
same,logarithmic reduction factor,[2]; [7],<1.47
same,logarithmic reduction factor,[2]; [8],<1.51
same,logarithmic reduction factor,[2]; [9],<1.66
same,logarithmic reduction factor,[2]; [10],<1.46
same,logarithmic reduction factor,[2]; [11],<1.47
same,logarithmic reduction factor,[2]; [12],<1.51
same,logarithmic reduction factor,[2]; [13],<1.66
same,logarithmic reduction factor,[2]; [14],<1.46
same,logarithmic reduction factor,[2]; [15],<3.35
same,logarithmic reduction factor,[2]; [16],<1.51
same,logarithmic reduction factor,[2]; [17],3.9
same,logarithmic reduction factor,[2]; [18],>5.66
same,logarithmic reduction factor,[2]; [19],>5.47
same,logarithmic reduction factor,[2]; [20],4.02
same,logarithmic reduction factor,[2]; [21],>5.66
same,logarithmic reduction factor,[2]; [22],>5.66
same,logarithmic reduction factor,[2]; [23],>5.47
same,logarithmic reduction factor,[3]; [4],<1.51
same,logarithmic reduction factor,[3]; [5],<1.36
same,logarithmic reduction factor,[3]; [6],<1.38
same,logarithmic reduction factor,[3]; [7],1.94
same,logarithmic reduction factor,[3]; [8],<1.51
same,logarithmic reduction factor,[3]; [9],1.78
same,logarithmic reduction factor,[3]; [10],3.03
same,logarithmic reduction factor,[3]; [11],4.02
same,logarithmic reduction factor,[3]; [12],<1.51
same,logarithmic reduction factor,[3]; [13],3.4
same,logarithmic reduction factor,[3]; [14],4.38
same,logarithmic reduction factor,[3]; [15],>5.26
same,logarithmic reduction factor,[3]; [16],2.33
same,logarithmic reduction factor,[3]; [17],4.14
same,logarithmic reduction factor,[3]; [18],>5.38
same,logarithmic reduction factor,[3]; [19],>5.26
same,logarithmic reduction factor,[3]; [20],3.12
same,logarithmic reduction factor,[3]; [21],>5.36
same,logarithmic reduction factor,[3]; [22],>5.38
same,logarithmic reduction factor,[3]; [23],>5.26
"CCCCCCCCC(=O)OCC[N+](C)(C)CCOC(=O)CCCCCCCC.COS(=O)(=O)[O-] [Example 3, dimethyl diethanolammonium dipelargonic acid ester methosulfate]",logarithmic reduction factor,[1]; [4],2.86
same,logarithmic reduction factor,[1]; [5],>4.63
same,logarithmic reduction factor,[1]; [6],>4.66
same,logarithmic reduction factor,[1]; [7],>4.67
same,logarithmic reduction factor,[1]; [8],>4.63
same,logarithmic reduction factor,[1]; [9],>4.63
same,logarithmic reduction factor,[1]; [10],>4.66
same,logarithmic reduction factor,[1]; [11],>4.67
same,logarithmic reduction factor,[1]; [12],>4.63
same,logarithmic reduction factor,[1]; [13],>4.63
same,logarithmic reduction factor,[1]; [14],>4.66
same,logarithmic reduction factor,[1]; [15],>4.67
same,logarithmic reduction factor,[1]; [16],>4.63
same,logarithmic reduction factor,[1]; [17],>4.63
same,logarithmic reduction factor,[1]; [18],>4.66
same,logarithmic reduction factor,[1]; [19],>4.67
same,logarithmic reduction factor,[1]; [20],>4.63
same,logarithmic reduction factor,[1]; [21],>4.63
same,logarithmic reduction factor,[1]; [22],>4.66
same,logarithmic reduction factor,[1]; [23],>4.67
same,logarithmic reduction factor,[2]; [4],<1.59
same,logarithmic reduction factor,[2]; [5],2.99
same,logarithmic reduction factor,[2]; [6],3.58
same,logarithmic reduction factor,[2]; [7],3.77
same,logarithmic reduction factor,[2]; [8],4.36
same,logarithmic reduction factor,[2]; [9],>5.58
same,logarithmic reduction factor,[2]; [10],>5.67
same,logarithmic reduction factor,[2]; [11],>5.53
same,logarithmic reduction factor,[2]; [12],>5.59
same,logarithmic reduction factor,[2]; [13],>5.58
same,logarithmic reduction factor,[2]; [14],>5.67
same,logarithmic reduction factor,[2]; [15],>5.53
same,logarithmic reduction factor,[2]; [16],>5.59
same,logarithmic reduction factor,[2]; [17],>5.58
same,logarithmic reduction factor,[2]; [18],>5.67
same,logarithmic reduction factor,[2]; [19],>5.53
same,logarithmic reduction factor,[2]; [20],>5.59
same,logarithmic reduction factor,[2]; [21],>5.58
same,logarithmic reduction factor,[2]; [22],>5.67
same,logarithmic reduction factor,[2]; [23],>5.53
same,logarithmic reduction factor,[3]; [4],<1.31
same,logarithmic reduction factor,[3]; [5],2.31
same,logarithmic reduction factor,[3]; [6],3.01
same,logarithmic reduction factor,[3]; [7],4.85
same,logarithmic reduction factor,[3]; [8],<1.31
same,logarithmic reduction factor,[3]; [9],3.67
same,logarithmic reduction factor,[3]; [10],>5.19
same,logarithmic reduction factor,[3]; [11],>5.55
same,logarithmic reduction factor,[3]; [12],2.05
same,logarithmic reduction factor,[3]; [13],>5.74
same,logarithmic reduction factor,[3]; [14],>5.19
same,logarithmic reduction factor,[3]; [15],>5.55
same,logarithmic reduction factor,[3]; [16],3.25
same,logarithmic reduction factor,[3]; [17],>5.74
same,logarithmic reduction factor,[3]; [18],>5.19
same,logarithmic reduction factor,[3]; [19],>5.55
same,logarithmic reduction factor,[3]; [20],3.78
same,logarithmic reduction factor,[3]; [21],>5.74
same,logarithmic reduction factor,[3]; [22],>5.19
same,logarithmic reduction factor,[3]; [23],>5.55
